Test results as given in patent US9844566B2, “Pharmaceutical composition for the preparation of infusion solutions of antimicrobial preparations, its production process (variations)” (priority 2011, dated 2017).

Experiments:
Type in all cases: in vivo
[1] = tested on: Staphylococcus aureus (ATCC No 25923 F-49); experiment: Experimental sepsis model in mice, S. aureus: survival on the seventh day; settings: for Mice survival rate on the 7th day of infection, S. aureus: mice infected i.v. 10^10 CFU/mouse, i.v. treatment daily for 3 days; for Mice survival on the 7th day, absolute values (survival rate/infected animals), S. aureus: survivors/infected mice
Description: (§1) Determination of therapeutic efficiency of antimicrobial agents was done on experimental models of sepsis and methods for statistical treatment of the obtained results (χ^2) according to [R19 and R20].
(§2) Microgerms. Staphylococcus aureus (ATCC No 25923 F-49), Escherichia coli (ATCC No25922 F-50), Pseudomonas aeruginosa (ATCC No 27853 F-51), Candida albicans (ATCC No 24433).
(§3) Animals. The experiments were carried out on hybrid mice (CBA×C57Black/6)CBF1 according to the “Regulations for test animals use” (USSR Ministry of health, order supplement No 755 from Dec. 8, 1977).
(§4) Experimental sepsis models. Tested mice were injected intravenously 0.8 ml of P. aeruginosa daily culture suspension with a dosage 5×10^8 CFU/mouse or S. aureus daily culture suspension with a dosage 10^10 CFU/mouse or E. coli daily culture suspension with a dosage 8×10^8 CFU/mouse or Candida albicans daily culture suspension with a dosage 10^10 CFU/mouse. Mice of a control group were injected the 0.9% solution of NaCl or 5% dextrose solution in the volume of 0.8 ml.
(§5) In a day after being infected, during 3 days, the tested mice were daily intravenously injected with the indicated above antimicrobial preparations, dissolved in 0.9% solution of NaCl or in 5% dextrose solution, as well as their solutions prepared based on the pharmaceutical composition (as described hereinabove).
(§6) All beta-lactams were injected daily in the amount of 0.2 mg/mouse, amikacin sulfate in the amount of 2 mg/mouse daily, vancomycin in the amount of 1 mg/mouse daily, fosfomycin in the amount of 2 mg/mouse daily, and voriconazole in the amount of 0.1 mg/mouse contained in 0.5 ml of solution. Following the same order, the control group was injected with 0.9% NaCl solution or 5% dextrose solution, as well as water solutions of the pharmaceutical composition in the volume of 0.5 ml.
(§7) The antibacterial therapy efficiency was evaluated based on the number of surviving mice on the seventh day after being infected [R19, R20].
(§8) The obtained data shown in Tables 3 and 4 reflect the results of three independent experiments (at least 30 test animals were used for research of each inventive pharmaceutical preparation).

[2] = tested on: Escherichia coli (ATCC No25922 F-50); experiment: Experimental sepsis model in mice, E. coli: survival on the seventh day; settings: for Mice survival rate on the 7th day of infection, E. coli: mice infected i.v. 8×10^8 CFU/mouse, i.v. treatment daily for 3 days; for Mice survival on the 7th day, absolute values (survival rate/infected animals), E. coli: survivors/infected mice
Description: as §1, §2, §3, §4, §5, §6, §7, §8

[3] = tested on: Pseudomonas aeruginosa (ATCC No 27853 F-51); experiment: Experimental sepsis model in mice, P. aeruginosa: survival on the seventh day; settings: for Mice survival rate on the 7th day of infection, P. aeruginosa: mice infected i.v. 5×10^8 CFU/mouse, i.v. treatment daily for 3 days; for Mice survival on the 7th day, absolute values (survival rate/infected animals), P. aeruginosa: survivors/infected mice
Description: as §1, §2, §3, §4, §5, §6, §7, §8

[4] = tested on: Candida albicans (ATCC No 24433); experiment: Experimental mycotic sepsis model in mice, Candida albicans: survival on the seventh day; settings: for Mice survival rate on the 7th day of infection, Candida albicans: mice infected i.v. 10^10 CFU/mouse, i.v. treatment daily for 3 days; for Mice survival on the 7th day, absolute values (survival rate/infected animals), Candida albicans: survivors/infected mice
Description: as §1, §2, §3, §4, §5, §6, §7, §8

[5] = Table 4 (5% dextrose or Dextrose:Colloidal silica)
[6] = Table 3 (0.9% NaCl or NaCl:Colloidal silica)

Molecule	Mice survival rate on the 7th day of infection, S. aureus [1, 5]	Mice survival on the 7th day, absolute values (survival rate/infected animals), S. aureus [1, 5]	Mice survival rate on the 7th day of infection, E. coli [2, 5]	Mice survival on the 7th day, absolute values (survival rate/infected animals), E. coli [2, 5]	Mice survival rate on the 7th day of infection, S. aureus [1, 6]	Mice survival on the 7th day, absolute values (survival rate/infected animals), S. aureus [1, 6]	Mice survival rate on the 7th day of infection, E. coli [2, 6]	Mice survival on the 7th day, absolute values (survival rate/infected animals), E. coli [2, 6]	Mice survival rate on the 7th day of infection, P. aeruginosa [3, 6]	Mice survival on the 7th day, absolute values (survival rate/infected animals), P. aeruginosa [3, 6]	Mice survival rate on the 7th day of infection, P. aeruginosa [3, 5]	Mice survival on the 7th day, absolute values (survival rate/infected animals), P. aeruginosa [3, 5]	Mice survival rate on the 7th day of infection, Candida albicans [4, 6]	Mice survival on the 7th day, absolute values (survival rate/infected animals), Candida albicans [4, 6]	Mice survival rate on the 7th day of infection, Candida albicans [4, 5]	Mice survival on the 7th day, absolute values (survival rate/infected animals), Candida albicans [4, 5]
ceftriaxone [Ceftriaxone/5% dextrose solution]	40.6%	(13/32)	45.2%	(14/31)												
C[C@@H](O)[C@H]1C(=O)N2C(C(=O)O)=C(S[C@@H]3CN[C@H](C(=O)N(C)C)C3)[C@H](C)[C@H]12 [Meropenem/0.9% NaCl solution, meropenem]	73.8%	(31/42)	78.0%	(32/41)	70.9%	(22/31)	73.8%	(31/42)	71.8%	(23/32)	74.4%	(32/43)				
aztreonam [Aztreonam/0.9% NaCl solution]							70.0%	(21/30)	67.7%	(21/31)						
CN[C@H](CC(C)C)C(=O)N[C@H]1C(=O)N[C@@H](CC(N)=O)C(=O)N[C@H]2C(=O)N[C@H]3C(=O)N[C@H](C(=O)N[C@H](C(=O)O)c4cc(O)cc(O)c4-c4cc3ccc4O)[C@H](O)c3ccc(c(Cl)c3)Oc3cc2cc(c3O[C@@H]2O[C@H](CO)[C@@H](O)[C@H](O)[C@H]2O[C@H]2C[C@](C)(N)[C@H](O)[C@H](C)O2)Oc2ccc(cc2Cl)[C@H]1O [Vancomycin/0.9% NaCl solution, vancomycin]	77.5%	(31/40)			71.4%	(30/42)										
CC[C@H]1OC(=O)[C@H](C)[C@@H](O[C@H]2C[C@@](C)(OC)[C@@H](O)[C@H](C)O2)[C@H](C)[C@@H](O[C@@H]2O[C@H](C)C[C@H](N(C)C)[C@H]2O)[C@](C)(O)C[C@@H](C)CN(C)[C@H](C)[C@@H](O)[C@]1(C)O [Azithromycin/0.9% NaCl solution, azithromycin]	43.3%	(13/30)			43.3%	(13/30)										
CO/N=C(\C(=O)N[C@@H]1C(=O)N2C(C(=O)[O-])=C(C[N+]3(C)CCCC3)CS[C@H]12)c1csc(N)n1 [Cefepime/0.9% NaCl solution, cefepime]	56.7%	(17/30)	54.4%	(17/31)	46.7%	(14/30)	58.1%	(18/31)	51.6%	(16/31)	50.0%	(15/30)				
C[C@@H]1O[C@@H]1P(=O)(O)O [Fosfomycin/0.9% NaCl solution, fosfomycin]	43.7%	(14/32)	46.7%	(14/30)	36.7%	(11/30)	43.3%	(13/30)	30.0%	(9/30)	35.2%	(15/34)				
voriconazole [Voriconazole/0.9% NaCl solution]													45.1%	(14/31)	46.7%	(14/30)
CC(C)(O/N=C(\C(=O)N[C@@H]1C(=O)N2C(C(=O)[O-])=C(C[n+]3ccccc3)CS[C@H]12)c1csc(N)n1)C(=O)O [Ceftazidime/0.9% NaCl solution, ceftazidime]	40.0%	(12/30)	53.3%	(16/30)	38.7%	(12/31)	48.4%	(15/31)	46.7%	(14/30)	46.8%	(15/32)				
CO/N=C(\C(=O)N[C@@H]1C(=O)N2C(C(=O)O)=C(COC(C)=O)CS[C@H]12)c1csc(N)n1 [Cefotaxime/0.9% NaCl solution, cefotaxime]	42.8%	(15/35)	43.7%	(14/32)	43.7%	(14/32)	37.5%	(12/32)								
NCC[C@H](O)C(=O)N[C@@H]1C[C@H](N)[C@@H](O[C@H]2O[C@H](CN)[C@@H](O)[C@H](O)[C@H]2O)[C@H](O)[C@H]1O[C@H]1O[C@H](CO)[C@@H](O)[C@H](N)[C@H]1O.O=S(=O)(O)O.O=S(=O)(O)O [Amikacin sulfate/0.9% NaCl solution, amikacin sulfate]			46.7%	(14/30)			48.3%	(15/31)								
